Reference: ChEMBL document CHEMBL1157972, “Biotransformation of (-)-ambrox by cell suspension cultures of Actinidia deliciosa” (J Nat Prod, 2006)
Active and inactive are the calls of the source. No cut-off for these calls is given here.

The compounds below were run against Thymidine phosphorylase (Escherichia coli K-12) (UniProt P07650) (assay: (§1) Inhibition of Escherichia coli thymidine phosphorylase by spectrophotometry).
Sequence of Thymidine phosphorylase (Escherichia coli K-12) (P07650 whole entry, looked up): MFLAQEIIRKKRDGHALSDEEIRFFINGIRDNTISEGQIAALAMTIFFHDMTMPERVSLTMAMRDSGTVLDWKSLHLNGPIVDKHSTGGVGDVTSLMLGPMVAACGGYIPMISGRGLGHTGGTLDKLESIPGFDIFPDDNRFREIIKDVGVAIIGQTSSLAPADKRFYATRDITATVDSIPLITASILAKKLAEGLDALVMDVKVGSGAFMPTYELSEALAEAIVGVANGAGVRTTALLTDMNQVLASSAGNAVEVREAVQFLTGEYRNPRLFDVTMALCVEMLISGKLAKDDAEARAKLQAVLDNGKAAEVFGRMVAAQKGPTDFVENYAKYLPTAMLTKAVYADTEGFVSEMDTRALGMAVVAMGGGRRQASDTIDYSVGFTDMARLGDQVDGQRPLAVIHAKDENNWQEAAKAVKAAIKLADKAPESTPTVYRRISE

Activity | Compound
inactive | CC1(C)C(=O)CC[C@]2(C)[C@H]3CCO[C@]3(C)CC[C@@H]12
inactive | CC1(C)[C@@H](O)C[C@H](O)[C@]2(C)[C@H]3CCO[C@]3(C)CC[C@@H]12
inactive | CC1(C)CC[C@H](O)[C@]2(C)[C@H]3CCO[C@]3(C)CC[C@@H]12
inactive | CC1(C)CCC[C@]2(C)[C@H]3CCO[C@]3(C)CC[C@@H]12
inactive | CC1(C)[C@@H](O)CC[C@]2(C)[C@H]3CCO[C@]3(C)CC[C@@H]12

Each compound was assayed against Thymidine phosphorylase (Escherichia coli K-12, UniProt P07650) (assay: as §1).
Sequence of Thymidine phosphorylase (P07650 whole entry): as the sequence (P07650 whole entry, looked up) above

IC50 [µM] | Compound
72 | CC1(C)CC[C@H](O)[C@]2(C)[C@H]3CCO[C@]3(C)C[C@@H](O)[C@@H]12
81.4 | CC1(C)[C@@H](O)CC[C@]2(C)[C@H]3CCO[C@]3(C)C[C@@H](O)[C@@H]12
